What was measured:
Dipeptidyl peptidase 8 = Dipeptidyl peptidase 8 (Homo sapiens, UniProt Q6V1X1); test: Inhibition of full length human DPP8 expressed in baculovirus infected sf9 cells using Ala-Pro-p-nitroanilide as substrate preincubated for 15 mins followed by substrate addition measured for 10 mins by […]
[1] = Inhibition of bovine testes DPP9 using Ala-Pro-p-nitroanilide as substrate preincubated for 15 mins followed by substrate addition measured for 10 mins by […]; parameters: species or system Bos taurus
Dipeptidyl peptidase 2 = Dipeptidyl peptidase 2 (Homo sapiens, UniProt Q9UHL4); test: Inhibition of DPP2 in human seminal plasma using Lys-Ala-p-nitroanilide as substrate preincubated for 15 mins followed by substrate addition measured for 10 mins by […]; type: cell-free
Prolyl endopeptidase FAP = biological target: T1, Prolyl endopeptidase FAP (Mus musculus, UniProt P97321); test: Inhibition of BALB/c mouse 5'-His6-tagged 3'-FLAG-tagged FAP fused with ECD expressed in HEK293 cells using Ala-Pro-p-nitroanilide as substrate preincubated for 15 mins followed by substrate addition measured for 10 mins by […]; type: cell-based
T1 sequence (P97321 whole entry): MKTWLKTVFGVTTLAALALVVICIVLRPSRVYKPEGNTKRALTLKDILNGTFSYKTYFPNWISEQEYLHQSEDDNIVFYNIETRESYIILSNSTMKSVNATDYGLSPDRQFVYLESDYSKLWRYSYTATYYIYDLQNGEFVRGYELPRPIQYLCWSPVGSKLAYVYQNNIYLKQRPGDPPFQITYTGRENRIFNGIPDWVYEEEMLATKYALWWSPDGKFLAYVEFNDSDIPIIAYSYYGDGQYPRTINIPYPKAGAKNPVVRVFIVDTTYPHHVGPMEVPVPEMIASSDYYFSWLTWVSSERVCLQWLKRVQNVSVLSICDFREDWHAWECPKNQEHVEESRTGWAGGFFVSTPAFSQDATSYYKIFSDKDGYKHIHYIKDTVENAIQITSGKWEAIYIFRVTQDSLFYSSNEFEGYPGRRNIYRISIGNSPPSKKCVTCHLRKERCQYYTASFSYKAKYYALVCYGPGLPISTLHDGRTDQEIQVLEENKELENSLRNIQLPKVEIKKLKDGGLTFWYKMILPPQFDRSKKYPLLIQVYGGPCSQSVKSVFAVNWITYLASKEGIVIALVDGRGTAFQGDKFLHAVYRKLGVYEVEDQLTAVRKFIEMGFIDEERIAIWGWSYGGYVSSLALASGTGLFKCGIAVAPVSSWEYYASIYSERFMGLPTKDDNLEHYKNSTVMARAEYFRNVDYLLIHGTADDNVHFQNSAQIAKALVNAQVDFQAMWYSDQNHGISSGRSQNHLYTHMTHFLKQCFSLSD

Dipeptidyl peptidase 4 = Dipeptidyl peptidase 4 (Homo sapiens, UniProt P27487); test: Inhibition of DPP4 in human seminal plasma using Gly-Pro-p-nitroanilide as substrate preincubated for 15 mins followed by substrate addition measured for 10 mins by […]; type: cell-free
Sequence of Dipeptidyl peptidase 4 (P27487 whole entry): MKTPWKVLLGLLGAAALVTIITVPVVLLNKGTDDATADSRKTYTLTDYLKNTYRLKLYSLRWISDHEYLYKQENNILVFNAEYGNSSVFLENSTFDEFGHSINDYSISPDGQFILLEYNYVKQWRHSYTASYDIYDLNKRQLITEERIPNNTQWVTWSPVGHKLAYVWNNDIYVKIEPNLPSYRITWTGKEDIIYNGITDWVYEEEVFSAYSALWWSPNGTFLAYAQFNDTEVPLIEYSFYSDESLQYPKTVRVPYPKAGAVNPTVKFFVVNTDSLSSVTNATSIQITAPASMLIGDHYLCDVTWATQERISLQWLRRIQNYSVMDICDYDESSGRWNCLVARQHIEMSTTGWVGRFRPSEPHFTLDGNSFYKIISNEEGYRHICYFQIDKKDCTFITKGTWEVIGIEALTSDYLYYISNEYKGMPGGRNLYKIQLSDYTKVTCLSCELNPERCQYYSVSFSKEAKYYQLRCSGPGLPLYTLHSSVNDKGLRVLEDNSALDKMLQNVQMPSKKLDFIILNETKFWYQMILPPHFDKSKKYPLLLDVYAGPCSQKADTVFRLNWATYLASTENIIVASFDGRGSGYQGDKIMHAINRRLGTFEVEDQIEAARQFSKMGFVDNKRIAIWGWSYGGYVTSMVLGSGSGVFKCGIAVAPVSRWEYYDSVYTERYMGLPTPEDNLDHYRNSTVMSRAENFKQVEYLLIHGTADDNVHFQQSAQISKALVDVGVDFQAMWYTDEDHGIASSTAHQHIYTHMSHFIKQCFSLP

Sequence of Dipeptidyl peptidase 8 (Q6V1X1 whole entry): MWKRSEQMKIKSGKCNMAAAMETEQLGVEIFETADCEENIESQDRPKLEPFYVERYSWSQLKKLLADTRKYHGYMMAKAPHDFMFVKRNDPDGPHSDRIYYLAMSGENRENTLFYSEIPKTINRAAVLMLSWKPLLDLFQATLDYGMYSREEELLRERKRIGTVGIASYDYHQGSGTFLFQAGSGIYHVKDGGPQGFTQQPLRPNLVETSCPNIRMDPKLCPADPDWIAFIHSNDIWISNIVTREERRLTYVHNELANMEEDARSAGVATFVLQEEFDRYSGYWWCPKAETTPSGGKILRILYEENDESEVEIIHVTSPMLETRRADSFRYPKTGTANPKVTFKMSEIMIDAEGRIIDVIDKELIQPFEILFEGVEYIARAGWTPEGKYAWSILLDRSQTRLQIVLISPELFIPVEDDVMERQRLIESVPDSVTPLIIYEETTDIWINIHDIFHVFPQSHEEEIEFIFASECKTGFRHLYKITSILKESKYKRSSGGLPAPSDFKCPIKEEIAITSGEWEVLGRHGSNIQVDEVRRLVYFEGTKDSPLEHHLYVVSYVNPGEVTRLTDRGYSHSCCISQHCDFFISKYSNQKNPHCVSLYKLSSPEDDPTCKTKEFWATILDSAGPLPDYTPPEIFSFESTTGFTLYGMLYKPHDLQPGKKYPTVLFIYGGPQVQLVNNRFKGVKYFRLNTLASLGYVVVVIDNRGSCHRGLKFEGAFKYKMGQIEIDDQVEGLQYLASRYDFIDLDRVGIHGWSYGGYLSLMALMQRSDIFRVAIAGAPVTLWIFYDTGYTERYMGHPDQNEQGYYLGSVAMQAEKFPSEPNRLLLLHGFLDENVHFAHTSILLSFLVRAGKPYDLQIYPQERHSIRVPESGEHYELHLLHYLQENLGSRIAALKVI

| Compound | IC50 [1] | IC50 (Dipeptidyl peptidase 2) | also measured |
| --- | --- | --- | --- |
| N[C@@H](CC(=O)N1CCN(C(c2ccc(F)cc2)c2ccc(F)cc2)CC1)C(=O)N1Cc2cn[nH]c2C1 | > 25 µM | > 100 µM | IC50 (Dipeptidyl peptidase 8): > 100 µM |
| N[C@@H](CC(=O)N1CCN(C(c2ccc(F)cc2)c2ccc(F)cc2)CC1)C(=O)N1Cc2conc2C1 | 2.4 µM |  |  |
| CCC1CCN(C(=O)[C@@H](N)CC(=O)N2CCN(C(c3ccc(F)cc3)c3ccc(F)cc3)CC2)C1 (stereo partly specified) | 0.36 µM |  | IC50 (Prolyl endopeptidase FAP): > 100 µM |
| N#C[C@@H]1C[C@H](N=[N+]=[N-])CN1C(=O)[C@@H](N)CC(=O)N1CCN(C(c2ccc(F)cc2)c2ccc(F)cc2)CC1 | 0.23 µM | > 25 µM |  |
| CC[C@@H](C)[C@H](N)C(=O)N1C[C@H]2C[C@H]2[C@H]1C#N | 2.84 µM | > 100 µM |  |
| CCC1CCN(C(=O)[C@@H](N)[C@H](C)CC)C1 (stereo partly specified) | 5.7 µM |  |  |
| C=C1CCN(C(=O)[C@@H](N)[C@H](C)CC)C1 | 16 µM | > 100 µM | IC50 (Dipeptidyl peptidase 4): > 50 µM |
| N[C@@H](CC(=O)N1CCN(C(c2ccc(F)cc2)c2ccc(F)cc2)CC1)C(=O)N1CCC(C(F)(F)F)C1 (stereo partly specified) | 3.5 µM |  |  |
| CC[C@@H](C)[C@H](N)C(=O)N1Cc2nc(C)sc2C1 | > 100 µM | > 100 µM | IC50 (Dipeptidyl peptidase 8): > 25 µM |
| N[C@@H](CC(=O)N1CCN(C(c2ccc(F)cc2)c2ccc(F)cc2)CC1)C(=O)N1Cc2ccccc2C1 | 0.084 µM |  | IC50 (Prolyl endopeptidase FAP): > 100 µM |
| CC1CCN(C(=O)[C@@H](N)CC(=O)N2CCN(C(c3ccc(F)cc3)c3ccc(F)cc3)CC2)C1 (stereo partly specified) | 0.17 µM |  | IC50 (Prolyl endopeptidase FAP): > 100 µM |
| C=C1C[C@@H](C#N)N(C(=O)[C@@H](N)CC(=O)N2CCN(C(c3ccc(F)cc3)c3ccc(F)cc3)CC2)C1 | 0.083 µM |  |  |
| C[C@H]1C[C@@H](C#N)N(C(=O)[C@@H](N)CC(=O)N2CCN(C(c3ccc(F)cc3)c3ccc(F)cc3)CC2)C1 | 0.012 µM |  |  |
| CC[C@@H](C)[C@H](N)C(=O)N1CCC(C)C1 (stereo partly specified) | 4.7 µM |  |  |
| CC[C@@H](C)[C@H](N)C(=O)N1Cc2cn[nH]c2C1 | > 100 µM | > 100 µM | IC50 (Dipeptidyl peptidase 8): > 100 µM |
| Cc1nc2c(s1)CN(C(=O)[C@@H](N)CC(=O)N1CCN(C(c3ccc(F)cc3)c3ccc(F)cc3)CC1)C2 | 30 µM | > 100 µM |  |
| N#C[C@@H]1[C@@H]2C[C@@H]2CN1C(=O)[C@@H](N)CC(=O)N1CCN(C(c2ccc(F)cc2)c2ccc(F)cc2)CC1 | 0.0218 µM |  |  |
| C=C1CCN(C(=O)[C@@H](N)CC(=O)N2CCN(C(c3ccc(F)cc3)c3ccc(F)cc3)CC2)C1 | 0.41 µM | > 100 µM |  |
| CC[C@@H](C)[C@H](N)C(=O)N1Cc2ccccc2C1 |  |  | IC50 (Prolyl endopeptidase FAP): > 100 µM |
| CC[C@@H](C)[C@H](N)C(=O)N1Cc2conc2C1 | 42 µM |  |  |
| CC[C@@H](C)[C@H](N)C(=O)N1C[C@@H](N=[N+]=[N-])C[C@H]1C#N |  |  | IC50 (Prolyl endopeptidase FAP): > 100 µM |

Reference: ChEMBL document CHEMBL3797179, “Probing for improved selectivity with dipeptide-derived inhibitors of dipeptidyl peptidases 8 and 9: the impact of P1-variation” (Medchemcomm, 2016)
